The record followed here is patent US20260014285A1, “POLYPEPTIDE COMPOUND, AND COMPLEX AND USE THEREOF” (HANGZHOU HEALTHYTIDE BIOTECHNOLOGY CO., LTD., priority 2022, published 2026).

Non-standard residues stand in square brackets, D forms with d. Residues, ends and D or L forms follow the SMILES beside them. *: point of attachment. DOTA = O=C(O)CN1CCN(CC(=O)O)CCN(CC(=O)*)CCN(CC(=O)O)CC1; PEG4 = NCCOCCOCCOCCOCCC(=O)O; Aib = CC(C)(N)C(=O)O; AEA = NCCOCC(=O)O

The target in one series is integrin α5β1 (Homo sapiens, UniProt P05556+P08648). The series is described as follows: Target affinity test by surface plasmon resonance (SPR), integrin α5β1. It counts as binding. Conditions: SPR (Biacore T200), CM5 chip, 25° C., KD=Kd/Ka. The procedure: Surface plasmon resonance (SPR) technique was used to test the affinity of the compound in the examples to the target protein integrin α5β1. Specifically, the following operations were performed.
The affinity constants (KD) of the compounds to the target proteins integrin α5β1, αvβ3, and αvβ5 were calculated according to the formula of KD=Kd/Ka (the lower the value of KD, the higher the affinity of the compounds of the examples to the target protein integrin α5β1).
For orientation: Surface plasmon resonance follows binding to a sensor surface in real time, without labels.

Series [1] can be described thus: in vivo. Set-up: species or system mice. Conditions: naked (nude), mouse, iv, 100 uCi, total radioactivity. The procedure: (§1) For example, labeling TM4 with radioactive ^68Ga: An aqueous solution of TM4 (DOTA-Asn-Asp-Val-Ile-Asn-OH) (20 μg) was added to the prepared ^68GaCl3 solution, and the pH was adjusted to 3-5 with aqueous sodium acetate and acetic acid. This system was reacted at 70-95° C. for 15 min, and then purified after the reaction was completed to obtain a labeled solution of ^68Ga-DOTA-Asn-Asp-Val-Ile-Asn-OH (^68Ga-TM4).
(§2) All compounds were labeled with ^68Ga in the same way as described above.
Approximately 100 μCi of ^68Ga injection was injected into the tail vein of naked mice inoculated with SKOV3.

Series [2] is described as follows: in vivo. More on the design: species or system mice. Conditions: naked (nude), mouse, iv, 100 uCi, total radioactivity. The procedure:
as §1, §2
Approximately 100 μCi of ^68Ga injection was injected into the tail vein of naked mice inoculated with MC38.
The source holds these as a separate data set.

The nature of series [3]: in vivo. More on the design: species or system mice. The following applies: M-NSG, mouse, iv, 100 uCi, total radioactivity. On the procedure:
as §1, §2
Approximately 100 μCi of ^68Ga injection was injected into the tail vein of M-NSG mice inoculated with H1975. […] Table 6 was obtained by image post-processing.

integrin α5β1, sequence (P08648 42-995 limits assumed): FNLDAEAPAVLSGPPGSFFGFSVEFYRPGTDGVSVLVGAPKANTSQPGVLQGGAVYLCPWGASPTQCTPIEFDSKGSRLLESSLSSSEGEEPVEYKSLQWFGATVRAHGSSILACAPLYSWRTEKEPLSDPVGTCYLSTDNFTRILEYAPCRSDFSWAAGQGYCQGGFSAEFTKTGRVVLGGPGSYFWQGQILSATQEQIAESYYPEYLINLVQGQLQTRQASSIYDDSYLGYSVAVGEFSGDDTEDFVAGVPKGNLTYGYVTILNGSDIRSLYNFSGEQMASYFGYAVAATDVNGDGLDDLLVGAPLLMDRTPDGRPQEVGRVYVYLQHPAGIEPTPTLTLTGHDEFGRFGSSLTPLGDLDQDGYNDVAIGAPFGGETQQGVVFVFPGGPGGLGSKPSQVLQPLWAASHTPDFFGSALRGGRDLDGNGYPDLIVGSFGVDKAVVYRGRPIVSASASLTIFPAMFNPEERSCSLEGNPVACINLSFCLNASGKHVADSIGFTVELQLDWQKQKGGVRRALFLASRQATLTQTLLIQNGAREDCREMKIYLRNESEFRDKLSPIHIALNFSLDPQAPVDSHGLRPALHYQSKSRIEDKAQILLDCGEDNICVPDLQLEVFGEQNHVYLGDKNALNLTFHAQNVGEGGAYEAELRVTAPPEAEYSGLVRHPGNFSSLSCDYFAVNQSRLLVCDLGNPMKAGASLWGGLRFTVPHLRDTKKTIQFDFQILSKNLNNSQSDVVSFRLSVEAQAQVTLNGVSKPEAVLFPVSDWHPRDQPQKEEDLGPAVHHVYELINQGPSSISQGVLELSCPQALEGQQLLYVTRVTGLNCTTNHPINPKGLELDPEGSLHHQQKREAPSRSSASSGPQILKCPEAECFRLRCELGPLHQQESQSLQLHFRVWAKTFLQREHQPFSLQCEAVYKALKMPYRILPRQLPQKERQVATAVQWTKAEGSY
integrin α5β1, sequence (P05556 21-728 limits assumed): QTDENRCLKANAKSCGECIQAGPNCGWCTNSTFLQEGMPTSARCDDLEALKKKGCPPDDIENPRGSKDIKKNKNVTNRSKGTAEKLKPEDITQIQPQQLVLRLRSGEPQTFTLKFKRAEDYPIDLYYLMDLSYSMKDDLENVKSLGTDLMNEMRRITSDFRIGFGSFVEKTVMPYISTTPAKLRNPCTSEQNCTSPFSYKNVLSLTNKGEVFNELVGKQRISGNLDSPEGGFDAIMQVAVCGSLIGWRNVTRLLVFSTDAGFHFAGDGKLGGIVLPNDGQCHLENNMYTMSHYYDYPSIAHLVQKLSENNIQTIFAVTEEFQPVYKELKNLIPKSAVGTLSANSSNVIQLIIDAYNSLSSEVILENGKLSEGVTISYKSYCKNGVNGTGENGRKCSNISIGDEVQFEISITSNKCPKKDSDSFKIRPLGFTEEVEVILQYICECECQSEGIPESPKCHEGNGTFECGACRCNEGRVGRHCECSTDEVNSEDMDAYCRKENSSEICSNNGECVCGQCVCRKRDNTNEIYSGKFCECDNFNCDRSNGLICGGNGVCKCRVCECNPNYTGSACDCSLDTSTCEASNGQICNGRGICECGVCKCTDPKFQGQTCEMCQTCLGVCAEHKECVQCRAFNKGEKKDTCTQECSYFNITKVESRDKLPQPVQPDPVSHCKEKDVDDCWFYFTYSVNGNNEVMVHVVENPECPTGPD

As usually defined, the Kd is the constant that tells how readily two partners part at equilibrium. `CC[C@H](C)[C@H](NC(=O)[C@@H](NC(=O)[C@H](CC(=O)O)NC(=O)[C@H](CC(N)=O)NC(=O)[C@H](CC(=O)O)NC(=O)CNC(=O)[C@H](CCCNC(=N)N)NC(=O)CCOCCOCCOCCOCCNC(=O)CN1CCN(CC(=O)O)CCN(CC(=O)O)CCN(CC(=O)O)CC1)C(C)C)C(=O)N[C@@H](CC(N)=O)C(=O)O` [TM7] ({DOTA-PEG4}-RGDNDVIN-OH) yielded a Kd on integrin α5β1 of 43.9 nM.
Still for that read-out and setting: the value for `CC[C@H](C)[C@H](NC(=O)[C@@H](NC(=O)[C@H](CC(=O)O)NC(=O)[C@H](CC(N)=O)NC(=O)[C@H](CC(=O)O)NC(=O)CNC(=O)[C@H](CCCNC(=N)N)NC(=O)CN1CCN(CC(=O)O)CCN(CC(=O)O)CCN(CC(=O)O)CC1)C(C)C)C(=O)N[C@@H](CC(N)=O)C(=O)O` [TM6] ({DOTA}-RGDNDVIN-OH) was 239 nM.
The term tissue uptake denotes the percentage of the injected dose found per gram of tissue. Take `CC[C@H](C)[C@H](NC(=O)[C@@H](NC(=O)[C@H](CC(=O)O)NC(=O)[C@H](CC(N)=O)NC(=O)COCCNC(=O)CN1CCN(CC(=O)O)CCN(CC(=O)O)CCN(CC(=O)O)CC1)C(C)C)C(=O)N[C@@H](CC(N)=O)C(=O)O` [^68Ga-TM13, metal not drawn] ({DOTA-AEA}-NDVIN-OH): the tissue uptake at 1 h turned out to be 15.6 %ID/g in “in vivo [1]” (% ID/g Bladder); 0.08 %ID/g in the series “in vivo [1]” (% ID/g Bone); 0.09 %ID/g in “in vivo [1]” (% ID/g Brain); 0.17 %ID/g in the series “in vivo [1]” (% ID/g Heart); 0.85 %ID/g in the series “in vivo [1]” (% ID/g Intestine); 1.4 %ID/g in the series “in vivo [1]” (% ID/g Kidney). In addition, the tissue uptake at 1 h in “in vivo [1]” (% ID/g Liver) is 0.3 %ID/g; in the series “in vivo [1]” (% ID/g Lung) it was 0.12 %ID/g; in the series “in vivo [1]” (% ID/g Muscle), 0.08 %ID/g; in “in vivo [1]” (% ID/g Tumor) it was 0.49 %ID/g; in “in vivo [2]” (% ID/g Bladder), 7.3 %ID/g; in the series “in vivo [2]” (% ID/g Bone), 0.05 %ID/g. For the same compound, the tissue uptake at 1 h in the series “in vivo [2]” (% ID/g Brain) is 0.09 %ID/g; in “in vivo [2]” (% ID/g Heart) it was 0.11 %ID/g; in the series “in vivo [2]” (% ID/g Intestine), 0.2 %ID/g; in “in vivo [2]” (% ID/g Kidney) it was 1.6 %ID/g; in “in vivo [2]” (% ID/g Liver) it was 0.16 %ID/g; in the series “in vivo [2]” (% ID/g Lung) it was 0.08 %ID/g. For the same compound, the tissue uptake at 1 h in the series “in vivo [2]” (% ID/g Muscle) is 0.05 %ID/g; in the series “in vivo [2]” (% ID/g Tumor), 0.2 %ID/g; in the series “in vivo [3]” (% ID/g Bone), 0.13 %ID/g; in the series “in vivo [3]” (% ID/g Brain) it was 0.2 %ID/g; in the series “in vivo [3]” (% ID/g Heart) it was 0.49 %ID/g; in the series “in vivo [3]” (% ID/g Intestine), 0.6 %ID/g. The tissue uptake at 1 h in the series “in vivo [3]” (% ID/g Kidney) was 3.9 %ID/g; in “in vivo [3]” (% ID/g Liver), 0.5 %ID/g; in “in vivo [3]” (% ID/g Lung), 0.32 %ID/g; in “in vivo [3]” (% ID/g Muscle), 0.23 %ID/g; in “in vivo [3]” (% ID/g Tumor), 0.97 %ID/g.
For the compound `CC[C@H](C)[C@H](NC(=O)C(C)(C)NC(=O)[C@H](CC(=O)O)NC(=O)[C@H](CC(N)=O)NC(=O)CN1CCN(CC(=O)O)CCN(CC(=O)O)CCN(CC(=O)O)CC1)C(=O)N[C@@H](CC(N)=O)C(=O)O` [^68Ga-TM11, metal not drawn] ({DOTA}-ND[Aib]IN-OH), the tissue uptake at 1 h in “in vivo [1]” (% ID/g Bladder) stood at 4.7 %ID/g; in “in vivo [1]” (% ID/g Bone) it was 0.04 %ID/g; in the series “in vivo [1]” (% ID/g Brain), 0.09 %ID/g; in the series “in vivo [1]” (% ID/g Heart), 0.11 %ID/g; in the series “in vivo [1]” (% ID/g Intestine) it was 0.33 %ID/g; in “in vivo [1]” (% ID/g Kidney) it was 0.52 %ID/g. The tissue uptake at 1 h in the series “in vivo [1]” (% ID/g Liver) was determined as 0.15 %ID/g; in “in vivo [1]” (% ID/g Lung) it was 0.08 %ID/g; in “in vivo [1]” (% ID/g Muscle), 0.05 %ID/g; in the series “in vivo [1]” (% ID/g Tumor), 0.42 %ID/g; in “in vivo [2]” (% ID/g Bladder), 18.9 %ID/g; in “in vivo [2]” (% ID/g Bone), 0.08 %ID/g. The tissue uptake at 1 h turned out to be 0.18 %ID/g in the series “in vivo [2]” (% ID/g Brain); 0.25 %ID/g in “in vivo [2]” (% ID/g Heart); 0.59 %ID/g in “in vivo [2]” (% ID/g Intestine); 1.2 %ID/g in “in vivo [2]” (% ID/g Kidney); 0.29 %ID/g in “in vivo [2]” (% ID/g Liver); 0.15 %ID/g in “in vivo [2]” (% ID/g Lung). Also, the tissue uptake at 1 h is 0.08 %ID/g in “in vivo [2]” (% ID/g Muscle); 0.73 %ID/g in “in vivo [2]” (% ID/g Tumor); 0.27 %ID/g in “in vivo [3]” (% ID/g Bone); 0.21 %ID/g in “in vivo [3]” (% ID/g Brain); 0.53 %ID/g in the series “in vivo [3]” (% ID/g Heart); 0.5 %ID/g in the series “in vivo [3]” (% ID/g Intestine). In addition, the tissue uptake at 1 h in the series “in vivo [3]” (% ID/g Kidney) was 4 %ID/g; in “in vivo [3]” (% ID/g Liver), 0.43 %ID/g; in the series “in vivo [3]” (% ID/g Lung), 0.31 %ID/g; in “in vivo [3]” (% ID/g Muscle), 0.31 %ID/g; in the series “in vivo [3]” (% ID/g Tumor), 0.94 %ID/g.
